The values that follow come from ChEMBL document CHEMBL1146897, “A chloroquine-like molecule designed to reverse resistance in Plasmodium falciparum” (J Med Chem, 2006).

By IC50 is commonly meant the midpoint of a concentration-inhibition curve. Higher therefore signals weaker potency.

The test system of assay [1] is Plasmodium falciparum. The experiment in a line: Antimalarial activity against chloroquine-sensitive Plasmodium falciparum D6. Format: functional, organism-based.
Assay [2] relates to Plasmodium falciparum. The experiment in a line: Antimalarial activity against chloroquine-resistant Plasmodium falciparum Dd2. Format: functional, organism-based.
Another assay relates to Plasmodium chabaudi. The experiment in a line: Antimalarial activity in Plasmodium chabaudi infected CF1 mice (Mus musculus) at 64 mg/kg over 4 days.

Regarding `CN(CCCNc1ccnc2cc(Cl)ccc12)CCCN1c2ccccc2CCc2ccccc21`, the IC50 in the assay with Plasmodium falciparum [1] was 2.9 nM; in the assay on Plasmodium falciparum [2] it was 5.3 nM. In the assay with Plasmodium chabaudi, this compound yielded an Activity of more than 99%.
